Measurements as given in patent publication US20180055844A1 (Celgene Corporation, priority 2011, published 2018).
Several values for one entry are separate records, joined by “and”; a condition that tells them apart may be missing. Equal values may be shown once. Entries after “also recorded” stand apart in the source; their conditions may differ. Read-outs that look alike come from different tables or passages of the source.

Experiments:
[1] = test system: SF268; assay: Solid tumor cell colony formation; assay type: cell-based; conditions: Homo sapiens, SF-268
[2] = test system: OVCAR-3; assay: Solid tumor cell colony formation; assay type: cell-based; conditions: Homo sapiens
[3] = test system: PC-3; assay: Solid tumor cell colony formation; assay type: cell-based; conditions: Homo sapiens
[4] = test system: human umbilical artery; assay: Human umbilical artery angiogenesis assay; assay type: cell-based
[5] = test system: pRb, IRF4; assay: Western blot of cell cycle regulators in H929 cells; assay type: cell-based
[6] = molecular target: T1, CRBN (Homo sapiens, UniProt Q96SW2); assay: CRBN interaction; assay type: binding; conditions: dose-dependent
T1 construct: endogenous in cells; HepG2 hepatocellular carcinoma cells

[7] = test system: MM cell lines U266, 100-1 and 1K-2; assay: Proliferation of CRBN-sensitive MM cell lines; assay type: cell-based
[8] = test system: human umbilical vascular endothelial cell (HUVEC); assay: HUVEC invasion; assay type: cell-based
[9] = test system: SK-HEP-1; assay: Invasion of solid tumor cells; assay type: cell-based; conditions: Homo sapiens, SK-HEP1; SK-HEP-1 (VEGF), hepatocellular
[10] = test system: SF-539; assay: Invasion of solid tumor cells; assay type: cell-based; conditions: Homo sapiens; SF-539 (PDGF), glioblastoma
[11] = test system: MDA-MB-453; assay: Solid tumor cell colony formation; assay type: cell-based; conditions: Homo sapiens
[12] = test system: TNFα; assay: LPS-induced TNFα; assay type: cell-based
[13] = test system: WSU-DLCL2; assay: 5 day 3H thymidine incorporation assay; assay type: cell-based; conditions: Homo sapiens, WSUDLCL2; WSU-DLCL2, GCB subtype
Excerpt: (§1) Results of 3 independent experiments are shown (mean±SD) in FIG. 2. […] ABC-subtype cells appear more sensitive to the antiproliferative effect than other subtype cells including GCB-DLBCL and PMBL cells.

[14] = test system: OCI-Ly19; assay: 5 day 3H thymidine incorporation assay; assay type: cell-based; conditions: Homo sapiens; OCI-Ly19, GCB subtype
Excerpt: as §1

[15] = test system: RIVA; assay: 5 day 3H thymidine incorporation assay; assay type: cell-based; conditions: ABC subtype
Excerpt: as §1

[16] = test system: SUDHL4; assay: 5 day 3H thymidine incorporation assay; assay type: cell-based; conditions: Homo sapiens, SU-DHL-4; SUDHL4, GCB subtype
Excerpt: as §1

[17] = test system: TMD8; assay: 5 day 3H thymidine incorporation assay; assay type: cell-based; conditions: Homo sapiens; TMD8, ABC subtype
Excerpt: as §1

[18] = test system: U2932; assay: 5 day 3H thymidine incorporation assay; assay type: cell-based; conditions: Homo sapiens; U2932, ABC subtype
Excerpt: as §1

[19] = test system: Karpas-1106P; assay: 5 day 3H thymidine incorporation assay; assay type: cell-based; conditions: Homo sapiens, PMBL
Excerpt: as §1

[20] = test system: OCI-Ly10; assay: 5 day 3H thymidine incorporation assay; assay type: cell-based; conditions: Homo sapiens; OCI-Ly10, ABC subtype
Excerpt: as §1

[21] = test system: blood vessel growth; assay: Mouse Matrigel angiogenesis assay; assay type: in vivo; conditions: 30 mpk
[22] = Proliferation assays with Rituxan (Chou-Talalay method); assay type: cell-based
[23] = test system: SF-295; assay: Invasion of solid tumor cells; assay type: cell-based; conditions: Homo sapiens; SF-295 (PDGF), glioblastoma
[24] = test system: HEP-G2; assay: Solid tumor cell colony formation; assay type: cell-based; conditions: Homo sapiens, HepG2
[25] = test system: WSU-DLCL2 xenograft; assay: WSU-DLCL2 xenograft model; assay type: in vivo; conditions: combination with Rituxan (2 mg/kg iv qw)
[26] = test system: DoHH2 xenograft; assay: DoHH2 xenograft model; assay type: in vivo; conditions: for tumor growth inhibition: day 12
[27] = Stability in human plasma; assay type: in vitro ADME; conditions: read-out: t1/2 in human plasma
[28] = test system: TNFα; assay: WB TNFα; assay type: cell-based; conditions: Homo sapiens; whole blood
[29] = Oral pharmacokinetics; assay type: in vivo; conditions: Cyno monkey
[30] = test system: U87 GB xenograft; assay: U87 GB xenograft model; assay type: in vivo; conditions: 3 and 30 mg/kg qd
[31] = cynomolgus monkey, plasma, 3 mg/kg, 3 mpk po

T1 sequence (Q96SW2 whole entry): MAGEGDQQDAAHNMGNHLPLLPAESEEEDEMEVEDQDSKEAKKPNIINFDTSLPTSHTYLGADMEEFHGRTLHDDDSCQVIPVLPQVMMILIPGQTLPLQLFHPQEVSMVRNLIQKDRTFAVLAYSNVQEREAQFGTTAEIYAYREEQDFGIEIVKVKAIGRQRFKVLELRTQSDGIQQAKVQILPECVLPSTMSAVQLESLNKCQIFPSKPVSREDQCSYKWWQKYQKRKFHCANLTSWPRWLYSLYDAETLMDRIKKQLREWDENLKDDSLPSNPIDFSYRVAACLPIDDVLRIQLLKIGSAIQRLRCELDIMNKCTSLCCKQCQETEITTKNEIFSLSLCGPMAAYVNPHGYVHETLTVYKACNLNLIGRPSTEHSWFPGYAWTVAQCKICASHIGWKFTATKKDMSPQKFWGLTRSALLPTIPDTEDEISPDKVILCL

`Cc1nc2cccc(N)c2c(=O)n1C1CCC(=O)NC1=O` (centres unmarked) [compound of Formula I, 3-(5-amino-2-methyl-4-oxo-4H-quinazolin-3-yl)-piperidine-2,6-dione] gave an inhibition at 10 µM [1] of 0.6%, an inhibition at 10 µM [2] of 18% and an inhibition at 10 µM [3] of 14.8%. The IC50 ([4]; read-out: Human angiogenesis IC50) was 9.4 nM, the IC50 ([4]; read-out: anti-angiogenic IC50, human umbilical artery assay) was 9.4 nM and the “phosphorylation of pRB” value [5] was “decreased”. For the same molecule, the “total level of protein IRF4” value [5] was “decreased”, the “interaction with HepG2 HCC CRBN” value [6] was “interacts” and the “interaction with endogenous myeloma CRBN” value [6] was “interact”. The “proliferation of CRBN-sensitive MM cell lines U266, 100-1 and 1K-2” value [7] was “inhibit the proliferation”, the IC50 ([8]; read-out: IC50 for inhibition of HGF-induced HUVEC invasion) was 110 nM and the IC50 ([8]; read-out: IC50 for inhibition of VEGF-induced HUVEC invasion) was 0.29 nM. For the same molecule, the IC50 ([8]; read-out: IC50 for inhibition of bFGF-induced HUVEC invasion) was 5.5 nM, the IC50 [9] was 6.1 nM and the IC50 [10] was 25 nM. For the same molecule, the inhibition at 10 µM [11] was -7%, the IC50 [12] was 17 nM and the IC50 [13] was 790 to 2100 nM. The IC50 [14] was > 10000 nM, the IC50 [15] was 4300 nM and the IC50 [16] was > 10000 nM. For the same molecule, the IC50 [17] was 440 nM, the IC50 [18] was 110 to 120 nM and the IC50 [19] was 580 to 710 nM. For the same molecule, the IC50 [20] was 8.5 nM, the blood vessel growth [21] was “significantly inhibited” and the “interaction with Rituxan in proliferation assays” value [22] was “synergistically”. The IC50 [23] was 240 nM, the inhibition at 10 µM [24] was 6.9% and the “complete regressions (tumor volume<25 mm^3)” value ([25]; 3 mg) was 60%. For the same molecule, the “complete regressions (tumor volume<25 mm^3)” value ([25]; 30 mg) was 90%, the tumor growth inhibition ([26]; 3 mpk in combination with Rituxan (1 mg/kg)) was 45% and the tumor growth inhibition ([26]; 30 mpk in combination with Rituxan (1 mg/kg)) was 55%. The “delay of time to tumor endpoint” value ([26]; combination with Rituxan, 30 mg/kg dose) was 63%, the “blood vessels counts in tumor” value ([26]; in vivo) was “significantly inhibited” and the tumor growth ([26]; single agent) was “inhibited tumor growth”. The half-life [27] was 3.83 h, the IC50 [28] was 164 nM and the F ([29]; 3 mpk po) was 32%. The AUC [29, 31] was 12000 ng·h/mL and 43 µM·h, the Cmax [29, 31] was 3300 ng/mL and 11 µM and the half-life ([29]; cynomolgus monkey, plasma, oral, 3 mpk) was 5.8 h. For the same molecule, the clearance ([29]; cynomolgus monkey, plasma, read-out: CLp) was 1.2 mL/min/kg and the U87 tumor growth [30] was “significantly inhibited; also recorded: inhibits”.
